ChEMBL document CHEMBL1201862, “PubChem BioAssay data set” (2004)
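These data come from cells grown in 96-well plates and exposed to compound for 48 hours at five concentrations. GI50 is the concentration that inhibits growth by half.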 Active and inactive are the calls of the source. Cut-off read from the data, not from the text of the source: active = GI50 up to about 1.1 µM and inactive = higher.

Tests used:
Assay in all cases: growth of human tumour cells (NCI), 48 h
[1] = test system: RPMI-8226
[2] = test system: SK-OV-3
[3] = test system: ACHN
[4] = test system: NCI-H460
[5] = test system: OVCAR-3
[6] = test system: A498
[7] = test system: K562
[8] = test system: LOX IMVI
[9] = test system: SF-539
[10] = test system: PC-3
[11] = test system: NCI-H226
[12] = test system: SW-620
[13] = test system: HCT-116
[14] = test system: CAKI-1
[15] = test system: HL-60
[16] = test system: U-251
[17] = test system: DU-145
[18] = test system: Malme-3M
[19] = test system: KM12
[20] = test system: HCT-15

Compound	GI50 [1]	GI50 [2]	GI50 [3]	GI50 [4]	GI50 [5]	GI50 [6]	GI50 [7]	GI50 [8]	GI50 [9]	GI50 [10]	GI50 [11]	GI50 [12]	GI50 [13]	GI50 [14]	GI50 [15]	GI50 [16]	GI50 [17]	GI50 [18]	GI50 [19]	GI50 [20] [µM]
CC(C)Oc1cc2c(cc1O)CC[C@@H]1[C@@H]2CC[C@]2(C)[C@@H](O)CC[C@@H]12	4.29 µM (inactive)	4.67 µM (inactive)	9.89 µM (inactive)	3.28 µM (inactive)	2.81 µM (inactive)	6.65 µM (inactive)	1.51 µM (inactive)	4.58 µM (inactive)	2.42 µM (inactive)	8.97 µM (inactive)	3.23 µM (inactive)	2.72 µM (inactive)	3.33 µM (inactive)	1.52 µM (inactive)	1.71 µM (inactive)	13.3 µM (inactive)	7.28 µM (inactive)	3.82 µM (inactive)	4.2 µM (inactive)	1.61
CC(=O)C1=C(C)N(c2ccc(C)cc2)C2(O)C=CC(O)=C3C(=O)c4ccccc4C(=O)C312 (stereo not given)	3.27 µM (inactive)	> 100 µM (inactive)	11.8 µM (inactive)	7.23 µM (inactive)	3.91 µM (inactive)	12.9 µM (inactive)	31.3 µM (inactive)	6.95 µM (inactive)	23.8 µM (inactive)	16.4 µM (inactive)	22.8 µM (inactive)	4.81 µM (inactive)	5.52 µM (inactive)	13.5 µM (inactive)	7.76 µM (inactive)	18.5 µM (inactive)	15.4 µM (inactive)	1.91 µM (inactive)	7.41 µM (inactive)	4.49
CN(C)CCSCCO	> 100 µM (inactive)	> 100 µM (inactive)	> 100 µM (inactive)	> 100 µM (inactive)	> 100 µM (inactive)	> 100 µM (inactive)	> 100 µM (inactive)	> 100 µM (inactive)	> 100 µM (inactive)	> 100 µM (inactive)	> 100 µM (inactive)	> 100 µM (inactive)	> 100 µM (inactive)	> 100 µM (inactive)	97.1 µM (inactive)	> 100 µM (inactive)	> 100 µM (inactive)	> 100 µM (inactive)	> 100 µM (inactive)	> 100
O=C1C(NCCc2ccc(O)c(O)c2)=CC(=O)c2ncccc21	16.6 µM (inactive)	15.7 µM (inactive)	11.1 µM (inactive)	9.46 µM (inactive)	2.06 µM (inactive)	20.7 µM (inactive)	2.42 µM (inactive)	4.45 µM (inactive)	14.2 µM (inactive)	21.9 µM (inactive)	13.7 µM (inactive)	14.4 µM (inactive)	12.2 µM (inactive)	5.52 µM (inactive)	15.8 µM (inactive)	4.3 µM (inactive)	9.86 µM (inactive)	4.95 µM (inactive)	13.2 µM (inactive)	13.4
